Assay results reported in US9662323B2, “Compounds having muscarinic receptor antagonist and beta2 adrenergic receptor agonist activity” (CHIESI FARMACEUTICI S.p.A., priority 2015, dated 2017).
pKi: −log10 of the molar value.

Assays:
Human β2 adrenoceptor = biological target: T1, Human β2 adrenoceptor (Homo sapiens, UniProt P07550); assay: β2 Adrenoceptor Radioligand Binding Assay; settings: human β2 adrenoceptor membranes, 125-I Cyanopindolol; read-out: B2 binding affinity (Ki class)
T1 construct: purchased Perkin Elmer
T1 sequence (P07550 whole entry): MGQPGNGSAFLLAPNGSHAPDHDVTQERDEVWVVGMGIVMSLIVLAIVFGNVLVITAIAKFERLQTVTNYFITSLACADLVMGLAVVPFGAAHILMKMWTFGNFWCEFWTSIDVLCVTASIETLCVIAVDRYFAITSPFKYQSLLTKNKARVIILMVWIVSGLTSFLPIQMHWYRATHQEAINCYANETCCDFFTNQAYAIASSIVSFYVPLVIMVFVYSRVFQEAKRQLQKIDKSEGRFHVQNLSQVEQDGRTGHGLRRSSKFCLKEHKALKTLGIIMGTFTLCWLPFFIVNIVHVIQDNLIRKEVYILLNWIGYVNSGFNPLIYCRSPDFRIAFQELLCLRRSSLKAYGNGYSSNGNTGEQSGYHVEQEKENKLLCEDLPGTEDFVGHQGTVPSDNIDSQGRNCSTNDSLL
Procedure: β2 Adrenoceptor Radioligand Binding Assay
The assay was carried out in 96-well polypropylene plates in a volume of 200 ul. The assay buffer used was 25 mM HEPES, 0.5% BSA (w/v), 1 mM EDTA, 0.02% ascorbic acid (v/v), (pH 7.4). The final assay concentration of DMSO was 0.5% (v/v). The plates were sealed and incubated for 1 h at room temperature on an orbital shaker (slow speed). Membranes were harvested onto 96-well unifilter GF/C filter plates pre-treated with 0.5% polyethyleneimine (v/v), using a filter manifold, washed six times with 200 ul of wash buffer containing 10 mM HEPES and 500 mM NaCl. The plates were dried before addition of 50 μl of microscint-0, sealed then read in a Trilux Microbeta scintillation counter. IC50 values are determined from competition curves using a non-linear curve fitting program. Ki values were calculated from IC50 values by the Cheng and Prusoff equation.

Human M3 receptor = biological target: T2, Human M3 receptor (Homo sapiens, UniProt P20309); assay: M3 Receptor Radioligand Binding Assay; settings: human M3 receptor membranes, [3H]-N-methyl scopolamine; read-out: M3 binding affinity (Ki class)
T2 construct: purchased Perkin Elmer
T2 sequence (P20309 whole entry): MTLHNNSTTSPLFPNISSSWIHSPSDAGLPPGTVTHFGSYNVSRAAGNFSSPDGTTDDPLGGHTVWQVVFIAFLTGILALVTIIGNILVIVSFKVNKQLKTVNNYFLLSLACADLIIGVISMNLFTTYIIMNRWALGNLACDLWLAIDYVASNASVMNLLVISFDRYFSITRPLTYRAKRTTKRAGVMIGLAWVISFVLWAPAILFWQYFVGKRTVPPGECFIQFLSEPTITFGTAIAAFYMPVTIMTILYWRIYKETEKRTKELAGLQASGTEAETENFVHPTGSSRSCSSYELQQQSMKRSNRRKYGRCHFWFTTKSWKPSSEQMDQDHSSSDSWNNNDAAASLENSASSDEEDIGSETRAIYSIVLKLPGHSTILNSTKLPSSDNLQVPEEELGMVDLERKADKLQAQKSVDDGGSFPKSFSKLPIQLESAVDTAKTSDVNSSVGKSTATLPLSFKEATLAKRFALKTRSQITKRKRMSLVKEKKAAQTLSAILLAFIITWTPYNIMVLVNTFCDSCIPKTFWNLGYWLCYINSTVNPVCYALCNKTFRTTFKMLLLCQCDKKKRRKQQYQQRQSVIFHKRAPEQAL
Procedure: Biological Characterization M3 Receptor Radioligand Binding Assay
The assay was carried out in 96-well polypropylene plates in a volume of 250 ul. […] The final assay concentration of DMSO was 0.5% (v/v). The plates were sealed and incubated for 2 h at room temperature on an orbital shaker (slow speed). Membranes were harvested onto 96-well unifilter GF/C filter plates pre-treated with 0.5% polyethyleneimine (v/v), using a filter manifold, washed four times with 200 ul of assay buffer. The plates were dried before addition of 50 μl of microscint-0, sealed then read in a Trilux Microbeta scintillation counter.

SMILES | pKi (Human β2 adrenoceptor) | pKi (Human M3 receptor)
O=C(NCCCCNC[C@H](O)c1ccc(O)c2[nH]c(=O)ccc12)c1ccc(C(=O)N2CC(C(=O)O[C@H]3CN4CCC3CC4)(c3ccccc3)C2)cc1 [Compound 10A, (R)-Quinuclidin-3-yl 1-(4-((4-(((R)-2-hydroxy-2-(8-hydroxy-2-oxo-1,2-dihydroquinolin-5-yl)ethyl)amino)butyl)carbamoyl)benzoyl)-3-phenylazetidine-3-carboxylate] | > 9.00 | 8.00 to 9.00
O=C(Cc1cccc(OCCCCCNC[C@H](O)c2ccc(O)c3[nH]c(=O)ccc23)c1)N1CCC(C(=O)O[C@H]2CN3CCC2CC3)(c2ccccc2)CC1 [Compound 11, (R)-Quinuclidin-3-yl 1-(2-(3-((5-(((R)-2-hydroxy-2-(8-hydroxy-2-oxo-1,2-dihydroquinolin-5-yl)ethyl)amino)pentyl)oxy)phenyl)acetyl)-4-phenylpiperidine-4-carboxylate] | > 9.00 | 8.00 to 9.00
O=C(NCCCCNC[C@H](O)c1ccc(O)c2[nH]c(=O)ccc12)c1ccc(C(=O)N2CC(C(=O)O[C@H]3CN4CCC3CC4)(c3ccccc3)C2)s1 [Compound 11A, (R)-Quinuclidin-3-yl 1-(5-((4-(((R)-2-hydroxy-2-(8-hydroxy-2-oxo-1,2-dihydroquinolin-5-yl)ethyl)amino)butyl)carbamoyl)thiophene-2-carbonyl)-3-phenylazetidine-3-carboxylate] | > 9.00 | 8.00 to 9.00
Cc1cc(CC(=O)N2CCC(C(=O)O[C@H]3CN4CCC3CC4)(c3ccccc3)CC2)ccc1OCCCCCNC[C@H](O)c1ccc(O)c2[nH]c(=O)ccc12 [Compound 12, (R)-Quinuclidin-3-yl 1-(2-(4-((5-(((R)-2-hydroxy-2-(8-hydroxy-2-oxo-1,2-dihydroquinolin-5-yl)ethyl)amino)pentyl)oxy)-3-methylphenyl)acetyl)-4-phenylpiperidine-4-carboxylate] | < 8.00 | 8.00 to 9.00
CCN(CCCNC[C@H](O)c1ccc(O)c2[nH]c(=O)ccc12)C(=O)c1ccc(CCC(=O)N2CC(C(=O)O[C@H]3CN4CCC3CC4)(c3ccccc3)C2)cc1 [Compound 12A, (R)-Quinuclidin-3-yl 1-(3-(4-(ethyl(3-(((R)-2-hydroxy-2-(8-hydroxy-2-oxo-1,2-dihydroquinolin-5-yl)ethyl)amino)propyl)carbamoyl)phenyl)propanoyl)-3-phenylazetidine-3-carboxylate] | 8.00 to 9.00 | 8.00 to 9.00
O=C(Cc1ccc(OCCCCCNC[C@H](O)c2ccc(O)c3[nH]c(=O)ccc23)c(F)c1)N1CCC(C(=O)O[C@H]2CN3CCC2CC3)(c2ccccc2)CC1 [Compound 13, (R)-Quinuclidin-3-yl 1-(2-(3-fluoro-4-((5-(((R)-2-hydroxy-2-(8-hydroxy-2-oxo-1,2-dihydroquinolin-5-yl)ethyl)amino)pentyl)oxy)phenyl)acetyl)-4-phenylpiperidine-4-carboxylate] | < 8.00 | > 9.00
O=C(CCc1ccc(OCc2ccc(CNC[C@H](O)c3ccc(O)c4[nH]c(=O)ccc34)cc2)cc1)N1CC(C(=O)O[C@H]2CN3CCC2CC3)(c2ccccc2)C1 [Compound 13A, (R)-Quinuclidin-3-yl 1-(3-(4-((4-((((R)-2-hydroxy-2-(8-hydroxy-2-oxo-1,2-dihydroquinolin-5-yl)ethyl)amino)methyl)benzyl)oxy)phenyl)propanoyl)-3-phenylazetidine-3-carboxylate] | 8.00 to 9.00 | 8.00 to 9.00
O=C(Cc1ccc(OCCCCCNC[C@H](O)c2ccc(O)c3[nH]c(=O)ccc23)c(-c2ccsc2)c1)N1CCC(C(=O)O[C@H]2CN3CCC2CC3)(c2ccccc2)CC1 [Compound 14, (R)-Quinuclidin-3-yl 1-(2-(4-((5-(((R)-2-hydroxy-2-(8-hydroxy-2-oxo-1,2-dihydroquinolin-5-yl)ethyl)amino)pentyl)oxy)-3-(thiophen-3-yl)phenyl)acetyl)-4-phenylpiperidine-4-carboxylate] | > 9.00 | 8.00 to 9.00
O=C(Cc1ccc(CC(=O)N2CC(C(=O)O[C@H]3CN4CCC3CC4)(c3ccccc3)C2)cc1)N(CCCNC[C@H](O)c1ccc(O)c2[nH]c(=O)ccc12)Cc1ccccc1 [Compound 14A, (R)-Quinuclidin-3-yl 1-(2-(4-(2-(benzyl(3-(((R)-2-hydroxy-2-(8-hydroxy-2-oxo-1,2-dihydroquinolin-5-yl)ethyl)amino)propyl)amino)-2-oxoethyl)phenyl)acetyl)-3-phenylazetidine-3-carboxylate] | > 9.00 | > 9.00
O=C(Cc1ccc(OCCCCCNC[C@H](O)c2ccc(O)c3[nH]c(=O)ccc23)c(-c2ccccc2)c1)N1CCC(C(=O)O[C@H]2CN3CCC2CC3)(c2ccccc2)CC1 [Compound 15, (R)-Quinuclidin-3-yl 1-(2-(6-((5-(((R)-2-hydroxy-2-(8-hydroxy-2-oxo-1,2-dihydroquinolin-5-yl)ethyl)amino)pentyl)oxy)-[1,1′-biphenyl]-3-yl)acetyl)-4-phenylpiperidine-4-carboxylate] | > 9.00 | < 8.00
O=C(Cc1ccc(OCc2ccc(CNC[C@H](O)c3ccc(O)c4[nH]c(=O)ccc34)cc2)cc1)N1CC(C(=O)O[C@H]2CN3CCC2CC3)(c2ccccc2)C1 [Compound 15A, (R)-Quinuclidin-3-yl 1-(2-(4-((4-((((R)-2-hydroxy-2-(8-hydroxy-2-oxo-1,2-dihydroquinolin-5-yl)ethyl)amino)methyl)benzyl)oxy)phenyl)acetyl)-3-phenylazetidine-3-carboxylate] | > 9.00 | > 9.00
O=C(CCc1ccc(OCCCCCNC[C@H](O)c2ccc(O)c3[nH]c(=O)ccc23)c(-c2ccccc2)c1)N1CCC(C(=O)O[C@H]2CN3CCC2CC3)(c2ccccc2)CC1 [Compound 16, (R)-Quinuclidin-3-yl 1-(3-(6-((5-(((R)-2-hydroxy-2-(8-hydroxy-2-oxo-1,2-dihydroquinolin-5-yl)ethyl)amino)pentyl)oxy)-[1,1′-biphenyl]-3-yl)propanoyl)-4-phenylpiperidine-4-carboxylate] | > 9.00 | 8.00 to 9.00
O=C(NCc1ccc(CCNC[C@H](O)c2ccc(O)c3[nH]c(=O)ccc23)cc1)c1ccc(C(=O)N2CC(C(=O)O[C@H]3CN4CCC3CC4)(c3ccccc3)C2)cc1 [Compound 16A, (R)-Quinuclidin-3-yl 1-(4-((4-(2-(((R)-2-hydroxy-2-(8-hydroxy-2-oxo-1,2-dihydroquinolin-5-yl)ethyl)amino)ethyl)benzyl)carbamoyl)benzoyl)-3-phenylazetidine-3-carboxylate] | > 9.00 | > 9.00
Cc1cc(CCC(=O)N2CCC(C(=O)O[C@H]3CN4CCC3CC4)(c3ccccc3)CC2)ccc1OCCCCCNC[C@H](O)c1ccc(O)c2[nH]c(=O)ccc12 [Compound 17, (R)-Quinuclidin-3-yl 1-(3-(4-((5-(((R)-2-hydroxy-2-(8-hydroxy-2-oxo-1,2-dihydroquinolin-5-yl)ethyl)amino)pentyl)oxy)-3-methylphenyl)propanoyl)-4-phenylpiperidine-4-carboxylate] | > 9.00 | > 9.00
O=C(NCc1ccc(C(=O)N2CC(C(=O)O[C@H]3CN4CCC3CC4)(c3ccccc3)C2)cc1)c1ccc(CNC[C@H](O)c2ccc(O)c3[nH]c(=O)ccc23)cc1 [Compound 17A, (R)-Quinuclidin-3-yl 1-(4-((4-((((R)-2-hydroxy-2-(8-hydroxy-2-oxo-1,2-dihydroquinolin-5-yl)ethyl)amino)methyl)benzamido)methyl)benzoyl)-3-phenylazetidine-3-carboxylate] | > 9.00 | > 9.00
Cc1cc(/C=C/C(=O)N2CCC(C(=O)O[C@H]3CN4CCC3CC4)(c3ccccc3)CC2)ccc1OCCCCCNC[C@H](O)c1ccc(O)c2[nH]c(=O)ccc12 [Compound 18, (R)-Quinuclidin-3-yl 1-((E)-3-(4-((5-(((R)-2-hydroxy-2-(8-hydroxy-2-oxo-1,2-dihydroquinolin-5-yl)ethyl)amino)pentyl)oxy)-3-methylphenyl)acryloyl)-4-phenylpiperidine-4-carboxylate] | > 9.00 | > 9.00
O=C(c1ccc(OCCCCNC[C@H](O)c2ccc(O)c3[nH]c(=O)ccc23)cc1)N1CC(C(=O)O[C@H]2CN3CCC2CC3)(c2ccccc2)C1 [Compound 18A, (R)-Quinuclidin-3-yl 1-(4-(4-(((R)-2-hydroxy-2-(8-hydroxy-2-oxo-1,2-dihydroquinolin-5-yl)ethyl)amino)butoxy)benzoyl)-3-phenylazetidine-3-carboxylate] | > 9.00 | 8.00 to 9.00
O=C(NCCCCNC[C@H](O)c1ccc(O)c2[nH]c(=O)ccc12)c1ccc(C(=O)N2CCC(C(=O)O[C@H]3CN4CCC3CC4)(c3ccccc3)CC2)cc1 [Compound 19, (R)-Quinuclidin-3-yl 1-(4-((4-(((R)-2-hydroxy-2-(8-hydroxy-2-oxo-1,2-dihydroquinolin-5-yl)ethyl)amino)butyl)carbamoyl)benzoyl)-4-phenylpiperidine-4-carboxylate] | > 9.00 | 8.00 to 9.00
